Results published in patent US20220378936A1, “DELIVERY SYSTEM COMPLEXES COMPRISING A PRECIPITATE OF AN ACTIVE AGENT AND METHODS OF USE” (THE UNIVERSITY OF NORTH CAROLINA AT CHAPEL HILL, priority 2019, published 2022).

Columns and labels:
Hepa1-6 cells = experiment: MTT cytotoxicity assay, Hepa1-6; assay type: cell-based; conditions: Mus musculus; Hepa1-6, 24 h incubation
Method: (§1) MTT assay was applied to determine in vitro cytotoxicity. CT26 and Hepa1-6 cells (1×10^4/well) were cultured within 96-well plates, respectively. Following one day incubation, 5-Fu, Nano-dUMP and Nano-FdUMP were added to cells for 24 h. […] IC50 was calculated using the GraphPad Prism software.

CT26 cells = experiment: MTT cytotoxicity assay, CT26; assay type: cell-based; conditions: Mus musculus; CT26, 24 h incubation
Method: as §1

cells = conditions: free FdUMP; cited from earlier work
CT26-FL3 cells = experiment: MTT cytotoxicity assay; assay type: cell-based, mouse
Method: Cytotoxicity of Nano-Folox was estimated using the MTT assay with 3-(4,5-Dimethylthiazol-2-yl)-2,5-diphenyltetrazolium bromide^60. 10,000 CT26-FL3 cells per well were seeded in 96-well plates and incubated for one day. After incubation, cells were added with OxP and Nano-Folox for 24 h under normal growth conditions. Subsequently, cells were added with 20 μL MTT reagent (5 mg/mL in PBS) and incubated for 4 h at 37° C. 150 μL DMSO were used to dissolve the purple formazan products. The results were measured at 570 nm using a microplate reader. The 50% cell growth inhibition (IC50) was estimated using the GraphPad Prism software.

[1] = Pharmacokinetics of platinum in orthotopic CRC mice; assay type: in vivo, mouse; conditions: single i.v. injection, one-compartmental model
Description: (§2) The orthotopic CT26-FL3 colorectal tumor model was established as previously described^31.

[2] = Tissue distribution of Nano-Folox in orthotopic CRC mice (IVIS, ICP-MS); assay type: in vivo, mouse; conditions: 8 h after i.v. administration, 1.5 mg/kg platinum
Method: as §2
In addition, — 0.05% (wt) of lipophilic carbocyanine DiD (ThermoFisher) was used to formulate the DiD-labeled Nano-Folox (1.5 mg/kg platinum). Following 8 h i.v. injection of DiD-labeled Nano-Folox, major organs and tumors were collected and analyzed using the IVIS® Kinetics Optical System, with the excitation wavelength at 640 nm and the emission wavelength at 670 nm. The concentration of platinum in major organs and tumors was also measured using ICP-MS^8.

[3] = Aqueous solubility of stabilized nanoprecipitates; assay type: physicochemical; conditions: DOPA-stabilized nanoprecipitates
[4] = Particle size, zeta potential and morphology of Nano-Folox (Malvern Nano-ZS, TEM); conditions: FIG. 2A
Method: The measurements of particle size and zeta potential of Nano-Folox were performed using the Malvern Nano-ZS (Malvern Instruments, UK)^59. The morphology of nanoprecipitates and Nano-Folox was analyzed using transmission electron microscopy (TEM). Briefly, 5 μL Nano-Folox were added on 400-mesh carbon-filmed copper grids (Agar Scientific) for 2 min. The samples were stained with 2% (w/w) uranyl acetate before the analysis using the JEM1230 (JEOL) TEM. Alternatively, the morphology of the core was analyzed without the negative staining.

Q: With `O=c1[nH]cc(F)c(=O)[nH]1` [5-Fu, 5-fluorouracil] as the molecule, how does the IC50 (Hepa1-6 cells) read?
A: ~70 µM

Q: What about the IC50 (CT26 cells) of the same molecule?
A: ~70 µM

Q: For `O=c1[nH]c(=O)n([C@H]2C[C@H](O)[C@@H](COP(=O)(O)O)O2)cc1F` [FdUMP, 5-Fluoro-2′-deoxyuridine 5′-monophosphate], which permeability into cells (cells) is on record?
A: impermeable into cells

Q: Which “proliferation of CT26-FL3 cells” value (CT26-FL3 cells; FnA alone, data not shown) does the source give for `Nc1nc2c(c(=O)[nH]1)N(C=O)C(CNc1ccc(C(=O)N[C@@H](CCC(=O)O)C(=O)O)cc1)CN2` (stereo partly shown) [FnA, folinic acid] here?
A: not inhibited

Q: With `O=C1[O][Pt]2([NH][C@@H]3CCCC[C@H]3[NH]2)[O]C1=O` [OxP, oxaliplatin] as the molecule, how does the “half-life (t1/2) of platinum” value [1] read?
A: ~8 min

Q: And the IC50 (CT26-FL3 cells; 24 h incubation, read-out: IC50 (50% cell growth inhibition))?
A: 24 µM

Q: What about the “liver uptake of platinum” value [2] of the same molecule?
A: ~35 % ID/g

Q: What about the “tumor accumulation of platinum” value [2] of the same molecule?
A: ~15 % ID/g

Q: Which solubility in water [3] does the source give for `Nc1nc(=O)c2c([nH]1)NCC(CNc1ccc(C(=O)NC3CCC(=O)[O][Pt]4([NH]C5CCCCC5[NH]4)[O]C3=O)cc1)N2C=O` (stereo not shown) [Pt(DACH).FnA precipitate, dihydrate(1,2-diaminocyclohexane)platinum(II)-folinic acid] here?
A: poorly soluble in water

Q: And the “particle size of the DOPA-stabilized precipitate” value [4]?
A: ~100 nm
